The first assay has as its target T1, recombinant CETP (rCETP) (Homo sapiens, UniProt P11597).
T1 sequence (P11597 18-493): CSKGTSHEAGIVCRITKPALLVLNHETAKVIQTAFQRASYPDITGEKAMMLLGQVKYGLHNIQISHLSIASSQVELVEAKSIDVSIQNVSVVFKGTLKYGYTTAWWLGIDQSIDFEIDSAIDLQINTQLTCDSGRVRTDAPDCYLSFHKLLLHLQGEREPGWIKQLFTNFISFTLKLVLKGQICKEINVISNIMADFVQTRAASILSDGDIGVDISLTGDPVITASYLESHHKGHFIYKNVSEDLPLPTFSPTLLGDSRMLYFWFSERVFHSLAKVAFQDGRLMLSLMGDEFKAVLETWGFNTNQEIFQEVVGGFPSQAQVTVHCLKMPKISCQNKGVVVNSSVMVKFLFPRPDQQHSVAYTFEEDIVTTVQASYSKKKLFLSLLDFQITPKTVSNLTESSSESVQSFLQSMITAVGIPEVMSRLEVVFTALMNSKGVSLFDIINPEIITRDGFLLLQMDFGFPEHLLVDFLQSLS
The assay can be described thus: RTA assay using recombinant CETP (2% RTA). In kind it is biochemical. The following applies: RTA assay in 2% human serum; read-out: IC50. The method in brief: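 Compounds preincubated 1 h at 37 °C with assay cocktail (CETP buffer: 50 mM Tris pH 7.4, 100 mM NaCl, 1 mM EDTA; human HDL acceptor); transfer started with [3H]cholesteryl oleate- or [3H]triolein-labelled LDL, 60 min at 37 °C. LDL PEG-precipitated; supernatant counted by scintillation, blank-corrected; IC50 from 4-parameter sigmoidal fit of % inhibition vs DMSO control.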
For `COc1ccc([C@H]2CC[C@H](C(=O)O)CC2)cc1-c1ccc(N2CCC2)nc1CN1C(=O)O[C@H](c2cc(F)cc(F)c2)[C@@H]1C` [Example 85], the IC50 is 84 nM. Regarding `COC(=O)c1cc(-c2ccc(OC)c(-c3ccc(N4CCC4)nc3CN3C(=O)O[C@H](c4cc(C(F)(F)F)cc(C(F)(F)F)c4)[C@@H]3C)c2)no1` [Example 28], the IC50 came to 80 nM. As for `COc1ccc(C2C[C@H]2C(=O)O)cc1-c1cnc(N2CCC2)nc1CN1C(=O)O[C@H](c2cc(C(F)(F)F)cc(C(F)(F)F)c2)[C@@H]1C` (stereo partly drawn) [Example 153], the IC50 is 53 nM. Same read-out and setting: the result for `COC(=O)CCc1ccc(OC)c(-c2c(C)cc(N3CCC3)nc2CN2C(=O)O[C@H](c3cc(C(F)(F)F)cc(C(F)(F)F)c3)[C@@H]2C)c1` (single isomer, unassigned) [Example 39] reads 3 nM; that for `COC(=O)CCc1ccc(OC)c(-c2ccc(N3CCC3)nc2CN2C(=O)O[C@H](c3cc(F)c(F)c(F)c3)[C@@H]2C)c1` [Example 31], 97 nM; that for `Cc1cc(C(=O)O)ccc1-c1cc(F)cc(-c2ccc(N3CCC3)nc2CN2C(=O)O[C@H](c3cc(C(F)(F)F)cc(C(F)(F)F)c3)[C@@H]2C)c1` [Example 288], 11 nM. The same measure, in the same setting: for `COc1ccc(C(C)(C)CC(=O)O)cc1-c1ccc(N2CCC2)nc1CN1C(=O)O[C@H](c2cc(C(F)(F)F)cc(C(F)(F)F)c2)[C@@H]1C` [Example 77] the value was 15 nM. As to `COc1ccc(-c2cc(C(=O)O)on2)cc1-c1ccc(N2CCC2)nc1CN1C(=O)O[C@H](c2cc(C(F)(F)F)cc(C(F)(F)F)c2)[C@@H]1C` [Example 93], the IC50 was determined as 18 nM. For `CCOC(=O)C[C@@H]1CCc2cc(OC)c(-c3ccc(N4CCC4)nc3CN3C(=O)O[C@H](c4cc(F)cc(F)c4)[C@@H]3C)cc21` [Example 20], the IC50 is 96 nM. On the same count and under the same terms, for `CCOC(=O)CCc1ccc(OC)c(-c2ccc(N3CCC3)nc2CN2C(=O)O[C@H](c3cc(C)cc(C)c3)[C@@H]2C)c1` [Example 198] the value was 50 nM; for `COc1ccc([C@H]2CC[C@H](C(=O)O)CC2)cc1-c1ccc(N2CCC2)nc1CN1C(=O)O[C@H](c2cccc(C)c2)[C@@H]1C` [Example 225], 66 nM; for `COc1cc(F)c(-c2ccc(C(=O)O)cc2C)cc1-c1cnc(N2CC(F)C2)nc1CN1C(=O)O[C@H](c2cc(C(F)(F)F)cc(C(F)(F)F)c2)[C@@H]1C` [Example 152, 5′-[4-({(4S,5R)-5-[3,5-bis(trifluoromethyl)phenyl]-4-methyl-2-oxo-1,3-oxazolidin-3-yl}methyl)-2-(3-fluoroazetidin-1-yl)pyrimidin-5-yl]-2′-fluoro-4′-methoxy-2-methylbiphen-4-carboxylic acid], 10 nM. Consider `COc1ccc([C@H]2CC[C@H](C#N)CC2)cc1-c1ccc(N2CCC2)nc1CN1C(=O)O[C@H](c2cc(C)cc(C)c2)[C@@H]1C` [Example 255], for which the IC50 came out at 395 nM. Same read-out and setting: for `COc1cc(F)c([C@H]2C[C@@H](C(=O)O)C2)cc1-c1ccc(N2CCC2)nc1CN1C(=O)O[C@H](c2cc(C(F)(F)F)cc(C(F)(F)F)c2)[C@@H]1C` [Example 103] the value was 31 nM; for `COc1ccc([C@H]2C[C@@H](C(=O)OC)C2)cc1-c1c(C)cc(N2CCC2)nc1CN1C(=O)O[C@H](c2cc(C(F)(F)F)cc(C(F)(F)F)c2)[C@@H]1C` (single isomer, unassigned) [Example 41], 4 nM; for `COc1ccc([C@H]2C[C@H](C(=O)O)C2)cc1-c1ccc(N2CC(F)(F)C2)nc1CN1C(=O)O[C@H](c2cccc(OC(F)(F)F)c2)[C@@H]1C` [Example 295], 114 nM. For the molecule `COc1ccc(CC(C)(C)C(=O)O)cc1-c1ccc(N2CCC2)nc1CN1C(=O)O[C@H](c2cc(C(F)(F)F)cc(C(F)(F)F)c2)[C@@H]1C` [Example 122, 3-{3-[6-Azetidin-1-yl-2-({(4S,5R)-5-[3,5-bis(trifluoromethyl)phenyl]-4-methyl-2-oxo-1,3-oxazolidin-3-yl}methyl)pyridin-3-yl]-4-methoxyphenyl}-2,2-dimethylpropanoic acid], the IC50 amounted to 15 nM.

Take `COC(=O)c1ccc(-c2ccc(OC)c(-c3ccc(N4CCC4)nc3CN3C(=O)O[C@H](c4cccc(C)c4)[C@@H]3C)c2)c(C)c1` [Example 212]: the IC50 was found to be 75 nM.

Regarding `CCOC(=O)[C@@H]1C[C@H]1c1ccc(OC)c(-c2ccc(N3CCC3)nc2CN2C(=O)O[C@H](c3cc(F)cc(F)c3)[C@@H]2C)c1` [Example 16], the IC50 is 94 nM.

Regarding `COc1ccc(-c2ccc(C(=O)O)o2)cc1-c1ccc(N2CCC2)nc1CN1C(=O)O[C@H](c2cc(C(F)(F)F)cc(C(F)(F)F)c2)[C@@H]1C` [Example 112], the IC50 came to 184 nM. With `CCOC(=O)c1c(C)c(-c2ccc(OC)c(-c3ccc(N4CCC4)nc3CN3C(=O)O[C@H](c4cc(C(F)(F)F)cc(C(F)(F)F)c4)[C@@H]3C)c2)c(C)n1C` [Example 57], the IC50 was 7 nM. For `COc1ccc([C@H]2C[C@@H](C(=O)O)C2)cc1-c1c(C)cc(N2CCC2)nc1CN1C(=O)O[C@H](c2cc(C(F)(F)F)cc(C(F)(F)F)c2)[C@@H]1C` [Example 96], the IC50 came to 8 nM.

For `COc1ccc([C@H]2C[C@@H](C(=O)OC)C2)cc1-c1c(C)cc(N2CCC2)nc1CN1C(=O)O[C@H](c2cc(C(F)(F)F)cc(C(F)(F)F)c2)[C@@H]1C` (single isomer, unassigned) [Example 42], the IC50 came out at 102 nM. As for `COc1c(F)cc(-c2ccc(C(=O)O)cc2C)cc1-c1c(C)cc(N2CCC2)nc1CN1C(=O)O[C@H](c2cc(C(F)(F)F)cc(C(F)(F)F)c2)[C@@H]1C` [Example 287], the IC50 is 3 nM. The same measure, in the same setting: for `COc1cc(F)c(CCC(=O)O)cc1-c1ccc(N2CC(F)(F)C2)nc1CN1C(=O)O[C@H](c2cc(C(F)(F)F)cc(C(F)(F)F)c2)[C@@H]1C` [Example 65] the value was 24 nM; for `Cc1cc(C(=O)O)ccc1-c1cc(-c2cnc(N3CC(F)(F)C3)nc2CN2C(=O)O[C@H](c3cc(C(F)(F)F)cc(C(F)(F)F)c3)[C@@H]2C)ccc1F` [Example 184, 5′-[4-({(4S,5R)-5-[3,5-bis(trifluoromethyl)phenyl]-4-methyl-2-oxo-1,3-oxazolidin-3-yl}methyl)-2-(3,3-difluoroazetidin-1-yl)pyrimidin-5-yl]-2′-fluoro-2-methylbiphenyl-4-carboxylic acid], 12 nM; for `COc1ccc(CCC(=O)O)cc1-c1c(CN2C(=O)O[C@H](c3cc(C(F)(F)F)cc(C(F)(F)F)c3)[C@@H]2C)nc(N2CCC2)c(Br)c1C` [Example 70], 4 nM.

With `COc1cc(F)c(-c2ccc(C(=O)O)cc2C)cc1-c1ccc(N2CCC2)nc1CN1C(=O)O[C@H](c2cc(C#N)cc(C(F)(F)F)c2)[C@@H]1C` [Example 247], the IC50 was determined as 44 nM. `COc1ccc(-c2cnc(C(=O)O)cn2)cc1-c1ccc(N2CCC2)nc1CN1C(=O)O[C@H](c2cc(C(F)(F)F)cc(C(F)(F)F)c2)[C@@H]1C` [Example 95]: the IC50 is 34 nM. The same measure, in the same setting: for `COC(=O)c1ccc(-c2ccc(OC)c(-c3cnc(N4CC(F)(F)C4)nc3CN3C(=O)O[C@H](c4cc(C(F)(F)F)cc(C(F)(F)F)c4)[C@@H]3C)c2)c(C)c1` [Example 131] the value was 10 nM; for `COc1cc(F)c([C@H]2C[C@@H](C(=O)OC)C2)cc1-c1ccc(N2CCC2)nc1CN1C(=O)O[C@H](c2cc(C(F)(F)F)cc(C(F)(F)F)c2)[C@@H]1C` [Example 37], 17 nM. On the same count and under the same terms, the result for `COC(=O)c1cc(C)c(-c2ccc(OC)c(-c3ccc(N4CCC4)nc3CN3C(=O)O[C@H](c4cc(C(F)(F)F)cc(C(F)(F)F)c4)[C@@H]3C)c2)s1` [Example 46, Methyl 5-{3-[6-azetidin-1-yl-2-({(4S,5R)-5-[3,5-bis(trifluoromethyl)phenyl]-4-methyl-2-oxo-1,3-oxazolidin-3-yl}methyl)pyridin-3-yl]-4-methoxyphenyl}-4-methylthiophene-2-carboxylate] reads 10 nM; that for `COc1ccc(Cc2ncc[nH]2)cc1-c1ccc(N2CCC2)nc1CN1C(=O)O[C@H](c2cc(C(F)(F)F)cc(C(F)(F)F)c2)[C@@H]1C` [Example 267, (4S,5R)-3-({6-azetidin-1-yl-3-[5-(1H-imidazol-2-ylmethyl)-2-methoxyphenyl]pyridin-2-yl}methyl)-5-[3,5-bis(trifluoromethyl)phenyl]-4-methyl-1,3-oxazolidin-2-one], 67 nM. As to `CCOC(=O)C[C@@H]1CCc2cc(OC)c(-c3ccc(N4CCC4)nc3CN3C(=O)O[C@H](c4cccc(C)c4)[C@@H]3C)cc21` [Example 206], the IC50 amounted to 203 nM. Regarding `COc1ccc([C@H]2CC[C@H](C(=O)O)CC2)cc1-c1cnc(N2CC(F)(F)C2)nc1CN1C(=O)O[C@H](c2cc(C(F)(F)F)cc(C(F)(F)F)c2)[C@@H]1C` [Example 157], the IC50 is 10 nM.

Still in this assay, the particulars now being: value printed with the example; serum level not stated there; read-out: RTA.
With `COc1cc(F)c(C(C)C)cc1-c1cnc(N2CC(F)C2)nc1CN1C(=O)O[C@H](c2cc(C3CC3)cc(C(F)(F)F)c2)[C@@H]1C` [Example 303, (4S,5R)-5-[3-cyclopropyl-5-(trifluoromethyl)phenyl]-3-({2-(3-fluoroazetidin-1-yl)-5-[4-fluoro-2-methoxy-5-(propan-2-yl)phenyl]pyrimidin-4-yl}methyl)-4-methyl-1,3-oxazolidin-2-one], the IC50 turned out to be 98 nM.
